The record followed here is BindingDB's records for doi:10.1016/j.bmc.2017.06.015 (China Pharmaceutical University, 2017).

SMILES strings stand for the structures. pEC50, pIC50: −log10 of the molar value.

Series [1] can be described thus: Inhibition of ABCB1 in human K562/A02 cells assessed as potentiation of adriamycin-induced cytotoxicity by measuring ADR IC50 at 5 uM measured after 48 hrs by MTT assay (Rvb = 43.75 to 96.91 uM). On the technique in general: Tetrazolium assays rely on reduction of a dye to a coloured formazan, in cell work by metabolically active cells.
Series [2] can be described thus: Inhibition of ABCB1 in human K562/A02 cells assessed as potentiation of adriamycin-induced cytotoxicity by measuring ADR IC50 at 0.1 uM measured after 48 hrs by MTT assay (Rvb = 43.75 uM).
A short description of series [3]: Inhibition of ABCB1 in human K562/A02 cells assessed as potentiation of adriamycin-induced cytotoxicity by measuring ADR IC50 at 0.5 uM measured after 48 hrs by MTT assay (Rvb = 43.75 uM).
Series [4] is described as follows: Inhibition of ABCB1 in human K562/A02 cells assessed as potentiation of adriamycin-induced cytotoxicity by measuring ADR IC50 measured after 48 hrs by MTT assay (Rvb = 51.34 +/- 5.1 uM).
A short description of series [5]: Inhibition of ABCB1 in human K562/A02 cells assessed as potentiation of adriamycin-induced cytotoxicity measured after 48 hrs by MTT assay.
Series [6] in a line: Inhibition of ABCB1 in human K562/A02 cells assessed as potentiation of adriamycin-induced cytotoxicity by measuring ADR IC50 treated for 48 hrs followed by compound washout measured after 6 hrs by MTT assay (Rvb = 51.34 +/- 5.1 uM).
For series [7], the target named is ATP-dependent translocase ABCB1 (Homo sapiens, UniProt P08183). Description: Inhibition of ABCB1 in human K562/A02 cells assessed as potentiation of adriamycin-induced cytotoxicity by measuring ADR IC50 at 5 uM measured after 48 hrs by MTT assay (Rvb = 43.75 to 96.91 uM).
A short description of series [8]: Inhibition of ABCB1 in human K562/A02 cells assessed as potentiation of adriamycin-induced cytotoxicity by measuring ADR IC50 at 0.025 uM measured after 48 hrs by MTT assay (Rvb = 43.75 uM).
Series [9] in a line: Inhibition of ABCB1 in human K562/A02 cells assessed as potentiation of adriamycin-induced cytotoxicity by measuring ADR IC50 treated for 48 hrs followed by compound washout measured after 24 hrs by MTT assay (Rvb = 51.34 +/- 5.1 uM).
Series [10] is described as follows: Inhibition of ABCB1 in human K562/A02 cells assessed as potentiation of adriamycin-induced cytotoxicity by measuring ADR IC50 at 2.5 uM measured after 48 hrs by MTT assay (Rvb = 43.75 uM).
A short description of series [11]: Inhibition of ABCB1 in human K562/A02 cells assessed as potentiation of adriamycin-induced cytotoxicity by measuring ADR IC50 at 0.25 uM measured after 48 hrs by MTT assay (Rvb = 43.75 uM).
Series [12] is described as follows: Inhibition of ABCB1 in human K562/A02 cells assessed as potentiation of adriamycin-induced cytotoxicity by measuring ADR IC50 at 1 uM measured after 48 hrs by MTT assay (Rvb = 43.75 uM).
Series [13] is described as follows: Inhibition of ABCB1 in human K562/A02 cells assessed as potentiation of adriamycin-induced cytotoxicity by measuring ADR IC50 treated for 48 hrs followed by compound washout measured after 12 hrs by MTT assay (Rvb = 51.34 +/- 5.1 uM).
Series [14] can be described thus: Inhibition of ABCB1 in human K562/A02 cells assessed as potentiation of adriamycin-induced cytotoxicity by measuring ADR IC50 treated for 48 hrs followed by compound washout measured immediately by MTT assay (Rvb = 51.34 +/- 5.1 uM).
Series [15] in a line: Inhibition of ABCB1 in human K562/A02 cells assessed as potentiation of adriamycin-induced cytotoxicity by measuring ADR IC50 at 0.05 uM measured after 48 hrs by MTT assay (Rvb = 43.75 uM).

ATP-dependent translocase ABCB1, sequence (P08183 whole entry): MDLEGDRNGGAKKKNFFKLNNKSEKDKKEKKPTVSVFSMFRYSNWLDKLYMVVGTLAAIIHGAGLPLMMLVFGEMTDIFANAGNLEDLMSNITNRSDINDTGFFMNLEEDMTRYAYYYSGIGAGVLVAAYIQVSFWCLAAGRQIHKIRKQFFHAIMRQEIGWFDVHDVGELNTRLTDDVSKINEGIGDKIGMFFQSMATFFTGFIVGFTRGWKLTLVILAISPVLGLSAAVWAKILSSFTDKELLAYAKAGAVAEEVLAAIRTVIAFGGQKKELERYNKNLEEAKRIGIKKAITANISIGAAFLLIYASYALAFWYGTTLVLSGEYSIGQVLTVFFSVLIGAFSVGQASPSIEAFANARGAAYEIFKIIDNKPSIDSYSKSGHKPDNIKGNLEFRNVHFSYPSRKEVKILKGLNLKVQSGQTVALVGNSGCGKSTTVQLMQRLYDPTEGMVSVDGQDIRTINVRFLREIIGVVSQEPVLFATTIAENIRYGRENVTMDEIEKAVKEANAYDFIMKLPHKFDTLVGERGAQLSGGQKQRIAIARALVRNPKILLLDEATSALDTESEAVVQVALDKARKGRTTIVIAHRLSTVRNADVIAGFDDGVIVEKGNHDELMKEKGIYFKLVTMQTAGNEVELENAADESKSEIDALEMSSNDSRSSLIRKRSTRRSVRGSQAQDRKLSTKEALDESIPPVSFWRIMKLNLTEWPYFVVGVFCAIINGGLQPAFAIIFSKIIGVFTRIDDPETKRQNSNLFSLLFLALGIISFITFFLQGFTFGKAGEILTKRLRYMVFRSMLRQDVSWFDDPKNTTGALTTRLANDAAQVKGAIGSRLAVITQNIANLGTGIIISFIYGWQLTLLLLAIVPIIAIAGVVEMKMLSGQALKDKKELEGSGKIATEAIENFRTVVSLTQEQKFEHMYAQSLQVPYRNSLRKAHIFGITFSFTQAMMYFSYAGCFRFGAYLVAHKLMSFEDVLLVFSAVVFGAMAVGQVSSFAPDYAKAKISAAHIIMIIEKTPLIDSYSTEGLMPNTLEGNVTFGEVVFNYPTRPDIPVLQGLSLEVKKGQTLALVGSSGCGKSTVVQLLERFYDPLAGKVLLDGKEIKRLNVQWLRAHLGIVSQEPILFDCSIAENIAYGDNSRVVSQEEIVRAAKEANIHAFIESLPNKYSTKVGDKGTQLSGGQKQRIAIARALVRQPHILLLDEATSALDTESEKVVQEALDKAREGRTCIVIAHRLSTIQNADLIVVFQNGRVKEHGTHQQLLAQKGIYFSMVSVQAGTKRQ

`COc1ccc(NC(=O)c2ccccc2OCc2cn(CCN3CCc4cc(OC)c(OC)cc4C3)nn2)cc1`: in [1], the pIC50 (commonly −log10 of the IC50, conventionally taken in molar units) is 5.08.
Same read-out and setting: for `COc1cc2c(cc1OC)CN(CCn1cc(COc3ccccc3C(=O)Nc3cc(OC)c(OC)c(OC)c3)nn1)CC2` the value was 4.50; for `COc1cc2c(cc1OC)CN(CCn1cc(COc3ccccc3C(=O)Nc3cccc(Cl)c3)nn1)CC2`, 4.64.
For `COc1cc2c(cc1OC)CN(CCn1cc(COc3ccccc3C(=O)Nc3cccc(C)c3)nn1)CC2`, the pIC50 in series [1] was 4.92.
Still for that read-out and setting: for `COc1ccc(NC(=O)c2ccccc2OCc2cn(CCN3CCc4cc(OC)c(OC)cc4C3)nn2)cc1OC` the value was 5.11.
Consider `COc1cc2c(cc1OC)CN(CCn1cc(COc3ccccc3C(=O)Nc3ccc(C(C)(C)C)cc3)nn1)CC2`, for which the negative logarithm of the IC50 (pIC50) in series [2] is 4.46; in [3], 4.90; in series [4], 5.90; in series [6] it was 5.20; in series [7], 5.90; in series [8], 4.43. For the same molecule, the pIC50 in series [9] was 4.76; in series [10] it was 5.48; in [11], 4.74; in [12], 5.22; in [13] it was 4.99; in series [14], 5.36. In addition, the pIC50 in series [15] was 4.43. For the same molecule, the pEC50 – broadly, the EC50 on a negative log10 scale, so that one unit is a factor of ten – in series [5] is 6.59.
In the case of `COc1cc2c(cc1OC)CN(CCn1cc(COc3ccccc3C(=O)Nc3ccc(OC(F)(F)F)cc3)nn1)CC2`, the pIC50 in series [1] is 5.34.
For `COc1cc2c(cc1OC)CN(CCn1cc(COc3ccccc3C(=O)Nc3ccccc3)nn1)CC2`, in series [1], the pIC50 was 4.59.
On the same count and under the same terms, for `COc1cc2c(cc1OC)CN(CCn1cc(COc3ccccc3C(=O)Nc3ccc(F)cc3)nn1)CC2` the value was 5.08; for `COc1cc2c(cc1OC)CN(CCn1cc(COc3ccccc3C(=O)Nc3ccccc3[N+](=O)[O-])nn1)CC2`, 4.57.
Take `COc1cc2c(cc1OC)CN(CCn1cc(COc3ccccc3C(=O)Nc3ccc(Cl)cc3)nn1)CC2`: the pIC50 in series [1] was 5.16.
Same read-out and setting: the figure for `COc1cc2c(cc1OC)CN(CCn1cc(COc3ccccc3C(=O)Nc3ccc(C)cc3)nn1)CC2` is 5.12.
For the molecule `COc1cc2c(cc1OC)CN(CCc1ccc(NC(=O)c3cc(OC)c(OC)cc3NC(=O)c3cnc4ccccc4c3)cc1)CC2`, the pIC50 is 5.80 in series [4]; 5.30 in series [6]; 5.71 in series [1]; 4.84 in series [9]; 5.08 in [13]; 5.52 in [14].
For the molecule `COc1cc2c(cc1OC)CN(CCn1cc(COc3ccccc3C(=O)Nc3cccc([N+](=O)[O-])c3)nn1)CC2`, the pIC50 in series [1] was 4.56.
Same read-out and setting: for `COc1cc2c(cc1OC)CN(CCn1cc(COc3ccccc3C(=O)Nc3ccc([N+](=O)[O-])cc3)nn1)CC2` the value was 4.68; for `CCCCc1ccc(NC(=O)c2ccccc2OCc2cn(CCN3CCc4cc(OC)c(OC)cc4C3)nn2)cc1`, 5.20.
Take `COc1cccc(NC(=O)c2ccccc2OCc2cn(CCN3CCc4cc(OC)c(OC)cc4C3)nn2)c1`: the pIC50 in series [7] was 5.06.
Take `COc1cc2c(cc1OC)CN(CCn1cc(COc3ccccc3NC(=O)c3ccc(C(C)(C)C)cc3)nn1)CC2`: in series [1], the pIC50 was 5.47.
